Results published in patent EP3334759B1, “LACTOFERRIN FRAGMENT FOR THE USE AS ANTIBACTERIAL AND ANTIVIRAL AGENT” (Farmagens Health Care Srl, priority 2015, dated 2019).
Peptide text beside a SMILES is read from it.

Experiments:
Vero cell line = type: cell-based, Cercopithecus aethiops
Method: MTT assay: cells of Vero cell line (ATCC CRL-1586™ kidney epithelial cells of Cercopithecus aethiops) were cultivated at the appropriate growth conditions as recommended by the supplier in 96-well plates at a concentration of 2 × 10^4 cells/well and treated with the peptides according to the invention at different concentrations diluted in growth medium (1, 5, 10, 20, 50, 100, 250 mM) for 3, 10 and 24 hours. Subsequently, the medium was aspirated and the cells incubated at 37 °C for 3 hours with 10 µl of MTT (bromide of 3-(4,5-dimethylthiazol-2-yl)-2,5-diphenyltetrazolium), a vital dye able to enter the mitochondria and be metabolized by succinate dehydrogenase complex to formazan salts, determining a violet coloration in those cells. Afterward, the supernatant was discharged and isopropanol (100 uL) was added to each well to dissolve the produced salts. The reaction was allowed to proceed by incubation at room temperature in tilting agitation for 20 minutes, then spectrophotometric reading was performed at 570nm to assess cell viability in terms of proliferative inhibition and cell growth.

Human red blood cells = type: cell-based
Method: Human red blood cells from healthy donors have been isolated and used to performed the hemolytic assay. The peptide fragments of lactoferrin of SEQ ID No. 1 and SEQ ID No. 2 at different concentrations (1, 5, 10, 20, 50, 100, 250 mM) were added to the suspension of erythrocytes to a final volume of 100 µl. Samples were incubated under stirring at 37 °C for 60 min. The hemoglobin release was monitored by measuring the absorbance (Abs) of the supernatant at 540 nm. As negative control, i.e. zero hemolysis (blank), red cells resuspended in PBS were used, whereas completely lysed erythrocytes were used as a positive control for 100% hemolysis. The percentage of hemolysis was calculated using the following equation: % Hemolysis = [(SampleAbs−negativecontrolAbs)/(positivecontrolAbs−negativecontrolAbs)] × 100. [formula]

SMILES | toxicity, measured as a function of cellular integrity (Vero cell line) | toxicity towards the erythrocytes (hemolysis) (Human red blood cells)
CC(C)C[C@H](NC(=O)CNC(=O)[C@H](CS)NC(=O)[C@H](CCCCN)NC(=O)CNC(=O)[C@H](C)NC(=O)[C@@H](NC(=O)[C@@H](N)Cc1ccc(O)cc1)[C@@H](C)O)C(=O)N[C@H](C(=O)N1CCC[C@H]1C(=O)N[C@H](C(=O)N[C@@H](CC(C)C)C(=O)N[C@@H](C)C(=O)N[C@@H](CCC(=O)O)C(=O)N[C@@H](CC(N)=O)C(=O)N[C@@H](CCCNC(=N)N)C(=O)N[C@@H](CCCCN)C(=O)N[C@H](C(=O)N[C@@H](CO)C(=O)N[C@@H](CCCCN)C(=O)N[C@@H](Cc1ccc(O)cc1)C(=O)N[C@@H](CO)C(=O)N[C@@H](CO)C(=O)N[C@@H](CC(C)C)C(=O)N[C@@H](CC(=O)O)C(=O)N[C@@H](CS)C(=O)N[C@H](C(=O)N[C@@H](CC(C)C)C(=O)N[C@@H](CCCNC(=N)N)C(=O)N1CCC[C@H]1C(=O)O)C(C)C)[C@@H](C)O)C(C)C)C(C)C [SEQ ID No. 2] (H-YTAGKCGLVPVLAENRKTSKYSSLDCVLRP-OH) | ≤ 20% | not toxic
CC(C)C[C@H](NC(=O)[C@H](CCC(N)=O)NC(=O)[C@H](Cc1ccccc1)NC(=O)[C@H](CO)NC(=O)[C@H](CCCNC(=N)N)NC(=O)[C@H](CO)NC(=O)[C@H](CCCCN)NC(=O)[C@H](CC(N)=O)NC(=O)[C@H](CCCCN)NC(=O)CNC(=O)[C@H](Cc1ccccc1)NC(=O)[C@@H](N)CCCCN)C(=O)N[C@@H](Cc1ccccc1)C(=O)NCC(=O)N[C@@H](CO)C(=O)N1CCC[C@H]1C(=O)N1CCC[C@H]1C(=O)NCC(=O)N[C@@H](CCC(N)=O)C(=O)N[C@@H](CCCNC(=N)N)C(=O)N[C@@H](CC(=O)O)C(=O)N[C@@H](CC(C)C)C(=O)N[C@@H](CC(C)C)C(=O)N[C@@H](Cc1ccccc1)C(=O)N[C@@H](CCCCN)C(=O)N[C@@H](CC(=O)O)C(=O)O [SEQ ID No. 1] (H-KFGKNKSRSFQLFGSPPGQRDLLFKD-OH) | ≤ 20% | not toxic
